Measurements from US10632324B2, “Method for the treatment of skin tissues” (9127-4910 Quebec Inc., priority 2017, dated 2020).
“And” between values parts separate entries of the source, which are not always exact repeats. Equal entries are not always repeated. “Also recorded” adds a separate entry of the source.

How the values were obtained:
Format in all cases: in vivo, human
[1] = test system: cystic acne; assay: Split face/back pre-PDT radiant IR study, 11 cystic acne patients (Example 7); conditions: IR 970 nm 50 mW/cm2 15 min before 5-ALA; one month after PDT; most patients
Experimental: Study Design/Materials and Methods: Eleven (11) patients were enrolled in a split face or split back (pre-treated side versus control) study with a pre-approved IRB protocol. […] Lesion count was assessed both manually and by digital photography before and 4 weeks after one PDT procedure. Prior to the application of 5-ALA, one side of the face or back was pre-treated with radiant IR [CW LEDs emitting @λ 970 nm, irradiance 50 mW/cm2 for 15 minutes, total fluence 45 J/cm2], while the other half was used as control. PDT was then performed on the entire surface (face or back).

[2] = test system: inflammatory acne; assay: Randomized, controlled, rater-blinded split face/back trial of IR pre-treatment plus ALA-PDT vs ALA-PDT alone (Example 9); conditions: for Change from Baseline in Lesion Counts, Closed comedones, Median / Change from Baseline in Lesion Counts, Nodules, Median / Change from Baseline in Lesion Counts, Open comedones, Median / Change from Baseline in Lesion Counts, Papules, Median / Change from Baseline in Lesion Counts, Pustules, Median / Change from Baseline in Lesion Counts, Total Noninflammatory lesions, Median: week 4; for Change from Baseline in Lesion Counts, Total Inflammatory lesions, Median: week 4 (reduction); for Clinical Global Severity Assessment at Week-4, Median: six-point scale, grade 0 clear to 5 very severe (Table 1)
Experimental: One side was pre-treated for 15 minutes with radiant IR light emitting diode (LED) (970 nm), while the other side was used as control. ALA was then applied after which PDT LED (630 nm) was performed on the entire face or back surface. Blinded lesion counts and clinical global assessment of severity were performed based on digital photographs before and four weeks after the PDT procedure.
Inclusion criteria included patients with skin type I to III according to the Fitzpatrick Classification System [^xxviii]. Exclusion criteria comprised patients taking cortisone (Prednisone), anticoagulant therapy, or any drug known to increase photosensitivity. In addition, during the 12 months preceding the study, patients were required not to have used isotretinoin (Accutane), or applied topical steroids on the site to be treated. Moreover, oral antibiotics use, laser or topical anti-acne medication at the to-be-treated site were not permitted for eight weeks prior to the study. Patients gave written informed consent to participate in this trial in compliance with the US Code of Federal Regulations dealing with the conduct of clinical studies (21 CFR including parts 50 and 56 concerning informed consent and IRB regulations). The study was conducted according to Good Clinical Practice Guidelines and the principles of the Declaration of Helsinki, and was approved by the Institutional Review Board Services (Div. 1373737 Toronto, Canada).
Patients were assigned to a split face or split back group to allow for within-patient assessments of clinical effects. Assignment was based on the patient's problem area. One side was randomly (using a coin flip) assigned to receive IR pre-treatment and ALA-PDT, and the other ALA-PDT alone to serve as control. The IR pre-treatment consisted of a 15 minute exposure to radiant IR LED at 970 nm ([…] using the LumiPhase-R/IR™, OPUSMED Inc. Montreal, Canada) to reach peak H2O absorption inside-out temperature of 45° C. Papillary dermis temperature was monitored with a needle probe throughout the session and up to 40 minutes (Type-T thermocouple, Omega, Montreal, Canada). ALA (20% Levulan Kerastick, DUSA Pharmaceuticals, USA) was then applied on both sides for 60 minutes, after which PDT with LED at 630 nm (50 mW/cm^2, 70 J/cm^2) was performed on the entire face or back surface for a duration of 23 minutes (LumiPhase-R/B™, OPUSMED Inc. Montreal, Canada). No cooling method was used. Digital photographs (Canon Dual Flash EOS 10D, Canon, Tokyo, Japan with EX SIGMA 50 mm 1:2.8 macro lens, Sigma, Aizu, Japan) were taken prior to and four weeks after the procedure. Each photograph was taken maintaining identical ambient lighting, pose and camera angles.
Acne lesion counts were performed before and four weeks after the PDT treatment. All types of inflammatory (papules, pustules, nodules) and noninflammatory (open and closed comedones) acne lesions were counted. Lesion counts were performed based on the digital photographs by two non-treating physicians who were blinded to the treatment regimen (IR-treated or control side) and to the timing of the photographs (baseline or post-treatment).
The global severity of acne was assessed at the end of the study by the […] non-treating physicians, as described above, using a six-point rating scale (Table 1). Clinical success was defined by grades 0 (clear) or 1 (almost clear).
Adverse reactions were monitored throughout the study. Signs of erythema, oedema, scaling/crusting, bronzing, textural changes, hyperpigmentation, and hypopigmentation were documented during the time period of the clinical trial.
Cronbach's alpha was calculated to assess inter-rater reliability in assessments. Reliability was deemed acceptable if Cronbach alpha was […] allowing raters' assessments to be combined for analysis. The primary outcome variable was the percent change from baseline in inflammatory lesion count measured four weeks post-treatment. […]

[3] = test system: diffuse sebaceous gland hyperplasia; assay: Split-face radiant IR skin preparation prior to PDT, diffuse sebaceous gland hyperplasia (Example 4)
Experimental: A PDT treatment was performed on the face of a patient suffering from diffuse sebaceous gland hyperplasia. They were complaining of redness exacerbated by exercise/effort. […] Facial lesions were distributed mainly on the forehead and cheeks. […] They applied only topical Metrogel. […] Also, comedones and papulo-pustules were present. The patient was skin phototype II (Fitzpatrick classification). Their parent had similar skin condition.
Prior to PDT, radiant IR skin preparation was performed in only half of face (split face study). Then PDT was completed on the complete facial area. First, the face was washed with a mild soap and an acetone scrub was performed. A 970 nm LED source prototype emitting at 50 mW/cm2 in a CW mode was placed at 1.5 cm from the right side of face and left for 25 min. Right after split face irradiation, 5-aminolevilinic acid (Levulan™ Kerastick™) was applied to the treatment area and left for 90 min. The photosensitizer was then light activated by a 630 nm LED source emitting at 50 mW/cm^2 (LumiPhase-RB, Opusmed, Canada), until erythema was reached (20 min). This treatment was concluded by a 405 nm LED source emitting at 30 mW/cm^2 (LumiPhase-RB, Opusmed, Canada), for 5 min. […] Through a mechanism involving the opening of skin pores, IR radiant skin preparation enhanced drug penetration and absorption by the targeted structures (i.e. sebaceous glands).

NCC(=O)CCC(=O)O [5-ALA, 5-aminolevulinic acid]
number of cystic lesions, pre-treated versus control side [1]: statistically significant decrease in the number of cystic lesions
Change from Baseline in Lesion Counts, Closed comedones, Median ([2]; Control side (ALA-PDT alone)): 0.00%
Change from Baseline in Lesion Counts, Nodules, Median ([2]; Control side (ALA-PDT alone)): 20.00%
Change from Baseline in Lesion Counts, Open comedones, Median ([2]; Control side (ALA-PDT alone)): 0.00%
Change from Baseline in Lesion Counts, Papules, Median ([2]; Control side (ALA-PDT alone)): 38.10%
Change from Baseline in Lesion Counts, Pustules, Median ([2]; Control side (ALA-PDT alone)): 0.00%
Change from Baseline in Lesion Counts, Total Noninflammatory lesions, Median ([2]; Control side (ALA-PDT alone)): 0.00%
Change from Baseline in Lesion Counts, Total Inflammatory lesions, Median ([2]; Control side (ALA-PDT alone), listed as ALA): 38% and 37.86%
Clinical Global Severity Assessment at Week-4, Median ([2]; Control side): 2
treatment-related adverse effects / tolerability ([2]; IR pre-treatment + ALA-PDT and ALA-PDT alone, listed as ALA): No unusual treatment-related adverse effects were observed; also recorded: overall well tolerated
Clinical Global Severity Assessment at Week-4, Median ([2]; IR-Treated side): 1
Change from Baseline in Lesion Counts, Closed comedones, Median ([2]; IR-Treated side): 0.00%
Change from Baseline in Lesion Counts, Nodules, Median ([2]; IR-Treated side): 100.00%
Change from Baseline in Lesion Counts, Open comedones, Median ([2]; IR-Treated side): 0.00%
Change from Baseline in Lesion Counts, Papules, Median ([2]; IR-Treated side): 75.00%
Change from Baseline in Lesion Counts, Pustules, Median ([2]; IR-Treated side): 37.65%
Change from Baseline in Lesion Counts, Total Noninflammatory lesions, Median ([2]; IR-Treated side): 0.00%
Change from Baseline in Lesion Counts, Total Inflammatory lesions, Median ([2]; IR-Treated side, listed as ALA): 73% and 73.21%
clinical success rate (almost clear or clear categories) ([2]; IR-treated side, week-4): 78%
additional benefit of IR-treated side in inflammatory lesion count reduction ([2]; IR-treated vs control side, week-4): 35%
clinical success rate (almost clear or clear categories) ([2]; control side, week-4): 44%
time until slight erythema post-PDT disappeared ([2]; most patients): ≤ 48 h
duration of acneiform folliculitis ([2]; two patients): 3 to 4 days
time clearing was maintained post-treatment ([3]; especially on the radiant IR pre-treated side): up to 6 months
improvement of SH lesions ([3]; other side, no IR preparation, PDT alone, single treatment): 30%
